# Reference: patent US11759462B2, “Spirocyclic compounds as tryptophan hydroxylase inhibitors” (priority 2013, dated 2023)
# Target: T1, Recombinant human TPH1 (MBP tagged) (Homo sapiens, UniProt P17752)
# T1 construct: cloning full length human TPH1 cDNA in to a bacterial pMAL-c5E expression vector; made in house; host or cells: E. coli BL21 (DE3)
# T1 sequence (P17752 1-444): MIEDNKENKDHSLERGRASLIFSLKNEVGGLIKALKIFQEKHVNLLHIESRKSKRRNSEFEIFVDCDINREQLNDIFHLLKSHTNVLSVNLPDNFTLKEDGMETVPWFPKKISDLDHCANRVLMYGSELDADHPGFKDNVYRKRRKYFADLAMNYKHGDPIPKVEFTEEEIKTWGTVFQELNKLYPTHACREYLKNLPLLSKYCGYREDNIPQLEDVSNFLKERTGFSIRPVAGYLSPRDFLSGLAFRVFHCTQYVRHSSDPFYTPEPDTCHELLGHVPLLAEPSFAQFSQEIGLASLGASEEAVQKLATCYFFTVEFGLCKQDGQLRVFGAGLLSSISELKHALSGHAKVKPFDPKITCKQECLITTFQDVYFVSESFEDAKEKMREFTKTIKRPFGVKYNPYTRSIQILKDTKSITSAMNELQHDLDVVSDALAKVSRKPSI
# Test: TPH1 in vitro inhibition assay (kinetic fluorescence)
# Type: biochemical
# Conditions: read-out: TPH1 Range (TPH1 inhibition IC50)
# Summary of the method: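 Final mix: 15 nM MBP-TPH1, 30 μM Trp, 36 μM 6-methyltetrahydropterin, 25 μM ferrous ammonium sulfate, 50 mM MES pH 7.1, 1% DMSO, room temperature.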
row,Structure (SMILES),IC50 [nM]
1,"CC(=O)N1CC=C(c2ccc([C@@H](Oc3cc(N4CCC5(CC4)CN[C@H](C(=O)O)C5)nc(N)n3)C(F)(F)F)c(-n3ccc(C)n3)c2)CC1 [Example 1k, (S)-8-(6-((R)-1-(4-(1-acetyl-1,2,3,6-tetrahydropyridin-4-yl)-2-(3-methyl-1H-pyrazol-1-yl)phenyl)-2,2,2-trifluoroethoxy)-2-aminopyrimidin-4-yl)-2,8-diazaspiro[4.5]decane-3-carboxylic acid]",< 50
2,"CCOc1ccc(-c2ccc([C@@H](Oc3cc(N4CCC5(CC4)CN[C@H](C(=O)O)C5)nc(N)n3)C(F)(F)F)c(-n3ccc(C)n3)c2)cc1 [Example 1q, (S)-8-(2-amino-6-((R)-1-(4′-ethoxy-3-(3-methyl-1H-pyrazol-1-yl)-[1,1′-biphenyl]-4-yl)-2,2,2-trifluoroethoxy)pyrimidin-4-yl)-2,8-diazaspiro[4.5]decane-3-carboxylic acid]",< 50
3,"COc1ncc(-c2ccc([C@@H](Oc3cc(N4CCC5(CC4)CN[C@H](C(=O)O)C5)nc(N)n3)C(F)(F)F)c(-n3ccc(C)n3)c2)cn1 [Example 1r, (S)-8-(2-amino-6-((R)-2,2,2-trifluoro-1-(4-(2-methoxypyrimidin-5-yl)-2-(3-methyl-1H-pyrazol-1-yl)phenyl)ethoxy)pyrimidin-4-yl)-2,8-diazaspiro[4.5]decane-3-carboxylic acid]",< 50
4,"COc1ccc(-c2ccc([C@@H](Oc3cc(N4CCC5(CC4)CN[C@H](C(=O)O)C5)nc(N)n3)C(F)(F)F)c(-n3ccc(C)n3)c2)cn1 [Example 1s, (S)-8-(2-amino-6-((R)-2,2,2-trifluoro-1-(4-(6-methoxypyridin-3-yl)-2-(3-methyl-1H-pyrazol-1-yl)phenyl)ethoxy)pyrimidin-4-yl)-2,8-diazaspiro[4.5]decane-3-carboxylic acid]",< 50
5,"Cc1ccn(-c2cc(-c3ccccc3)ccc2[C@@H](Oc2cc(N3CCC4(CC3)CN[C@H](C(=O)O)C4)nc(N)n2)C(F)(F)F)n1 [Example 1u, (S)-8-(2-amino-6-((R)-2,2,2-trifluoro-1-(3-(3-methyl-H-pyrazol-1-yl)-[1,1′-biphenyl]-4-yl)ethoxy)pyrimidin-4-yl)-2,8-diazaspiro[4.5]decane-3-carboxylic acid]",< 50
6,"Cc1ccn(-c2cc(-c3cccc(C#N)c3)ccc2[C@@H](Oc2cc(N3CCC4(CC3)CN[C@H](C(=O)O)C4)nc(N)n2)C(F)(F)F)n1 [Example 1w, (S)-8-(2-amino-6-((R)-1-(3′-cyano-3-(3-methyl-1H-pyrazol-1-yl)-[1,1′-biphenyl]-4-yl)-2,2,2-trifluoroethoxy)pyrimidin-4-yl)-2,8-diazaspiro[4.5]decane-3-carboxylic acid]",< 50
7,"CC(=O)NCc1ccc(-c2ccc([C@@H](Oc3cc(N4CCC5(CC4)CN[C@H](C(=O)O)C5)nc(N)n3)C(F)(F)F)c(-n3ccc(C)n3)c2)cc1 [Example 1x, (S)-8-(6-((R)-1-(4′-(acetamidomethyl)-3-(3-methyl-1H-pyrazol-1-yl)-[1,1′-biphenyl]-4-yl)-2,2,2-trifluoroethoxy)-2-aminopyrimidin-4-yl)-2,8-diazaspiro[4.5]decane-3-carboxylic acid]",< 50
8,"Cc1ccn(-c2cc(-c3ccc4cccnc4c3)ccc2[C@@H](Oc2cc(N3CCC4(CC3)CN[C@H](C(=O)O)C4)nc(N)n2)C(F)(F)F)n1 [Example 1z, (S)-8-(2-amino-6-((R)-2,2,2-trifluoro-1-(2-(3-methyl-1H-pyrazol-1-yl)-4-(quinolin-7-yl)phenyl)ethoxy)pyrimidin-4-yl)-2,8-diazaspiro[4.5]decane-3-carboxylic acid]",< 50
9,"Cc1ccn(-c2cc(C(O)CO)ccc2[C@@H](Oc2cc(N3CCC4(CC3)CN[C@H](C(=O)O)C4)nc(N)n2)C(F)(F)F)n1 (stereo partly drawn) [Example 13, (3S)-8-(2-amino-6-((1R)-1-(4-(1,2-dihydroxyethyl)-2-(3-methyl-1H-pyrazol-1-yl)phenyl)-2,2,2-trifluoroethoxy)pyrimidin-4-yl)-2,8-diazaspiro[4.5]decane-3-carboxylic acid]",50 to 300
10,"Cc1ccn(-c2cc(C#N)ccc2[C@@H](Oc2cc(N3CCC4(CC3)CN[C@H](C(=O)O)C4)nc(N)n2)C(F)(F)F)n1 [Example 14, (S)-8-(2-amino-6-((R)-1-(4-cyano-2-(3-methyl-H-pyrazol-1-yl)phenyl)-2,2,2-trifluoroethoxy)pyrimidin-4-yl)-2,8-diazaspiro[4.5]decane-3-carboxylic acid]",< 50
11,"Cc1ccn(-c2cc(C(N)=O)ccc2[C@@H](Oc2cc(N3CCC4(CC3)CN[C@H](C(=O)O)C4)nc(N)n2)C(F)(F)F)n1 [Example 15, (S)-8-(2-amino-6-((R)-1-(4-carbamoyl-2-(3-methyl-H-pyrazol-1-yl)phenyl)-2,2,2-trifluoroethoxy)pyrimidin-4-yl)-2,8-diazaspiro[4.5]decane-3-carboxylic acid]",50 to 300
12,"CCOC(=O)c1ccc([C@@H](Oc2cc(N3CCC4(CC3)CN[C@H](C(=O)O)C4)nc(N)n2)C(F)(F)F)c(-n2ccc(C)n2)c1 [Example 17, (S)-8-(2-amino-6-((R)-1-(4-(ethoxycarbonyl)-2-(3-methyl-H-pyrazol-1-yl)phenyl)-2,2,2-trifluoroethoxy)pyrimidin-4-yl)-2,8-diazaspiro[4.5]decane-3-carboxylic acid]",< 50

# Now from value to molecule:
row,IC50 [nM],Structure (SMILES)
1,50 to 300,"COc1ccc([C@@H](Oc2cc(N3CCC4(CC3)CN[C@H](C(=O)O)C4)nc(N)n2)C(F)(F)F)c(-n2ccc(C)n2)c1 [Example 10l, (S)-8-(2-amino-6-((R)-2,2,2-trifluoro-1-(4-methoxy-2-(3-methyl-1H-pyrazol-1-yl)phenyl)ethoxy)pyrimidin-4-yl)-2,8-diazaspiro[4.5]decane-3-carboxylic acid]"
2,< 50,"Cc1ccn(-c2cc(Br)ccc2[C@@H](Oc2cc(N3CCC4(CC3)CN[C@H](C(=O)O)C4)nc(N)n2)C(F)(F)F)n1 [Example 10m, (S)-8-(2-amino-6-((R)-1-(4-bromo-2-(3-methyl-1H-pyrazol-1-yl)phenyl)-2,2,2-trifluoroethoxy)pyrimidin-4-yl)-2,8-diazaspiro[4.5]decane-3-carboxylic acid]"
3,< 50,"Cc1ccn(-c2ccc(Br)cc2[C@@H](Oc2cc(N3CCC4(CC3)CN[C@H](C(=O)O)C4)nc(N)n2)C(F)(F)F)n1 [Example 10n, (S)-8-(2-amino-6-((R)-1-(5-bromo-2-(3-methyl-1H-pyrazol-1-yl)phenyl)-2,2,2-trifluoroethoxy)pyrimidin-4-yl)-2,8-diazaspiro[4.5]decane-3-carboxylic acid]"
4,50 to 300,"Nc1nc(O[C@H](c2ccc(Cl)cc2-n2ccc(C(F)(F)F)n2)C(F)(F)F)cc(N2CCC3(CC2)CN[C@H](C(=O)O)C3)n1 [Example 10p, (S)-8-(2-amino-6-((R)-1-(4-chloro-2-(3-(trifluoromethyl)-1H-pyrazol-1-yl)phenyl)-2,2,2-trifluoroethoxy)pyrimidin-4-yl)-2,8-diazaspiro[4.5]decane-3-carboxylic acid]"
5,50 to 300,"CC(C)(C)c1ccn(-c2cc(Cl)ccc2[C@@H](Oc2cc(N3CCC4(CC3)CN[C@H](C(=O)O)C4)nc(N)n2)C(F)(F)F)n1 [Example 10pa, (S)-8-(2-amino-6-((R)-1-(2-(3-(tert-butyl)-1H-pyrazol-1-yl)-4-chlorophenyl)-2,2,2-trifluoroethoxy)pyrimidin-4-yl)-2,8-diazaspiro[4.5]decane-3-carboxylic acid]"
6,< 50,"CC(C)c1ccn(-c2cc(Cl)ccc2[C@@H](Oc2cc(N3CCC4(CC3)CN[C@H](C(=O)O)C4)nc(N)n2)C(F)(F)F)n1 [Example 10q, (S)-8-(2-amino-6-((R)-1-(4-chloro-2-(3-isopropyl-1H-pyrazol-1-yl)phenyl)-2,2,2-trifluoroethoxy)pyrimidin-4-yl)-2,8-diazaspiro[4.5]decane-3-carboxylic acid]"
7,< 50,"Nc1nc(O[C@H](c2ccc(Cl)cc2-n2ccc(C3CC3)n2)C(F)(F)F)cc(N2CCC3(CC2)CN[C@H](C(=O)O)C3)n1 [Example 10r, (S)-8-(2-amino-6-((R)-1-(4-chloro-2-(3-cyclopropyl-1H-pyrazol-1-yl)phenyl)-2,2,2-trifluoroethoxy)pyrimidin-4-yl)-2,8-diazaspiro[4.5]decane-3-carboxylic acid]"
8,50 to 300,"CCc1ccc([C@@H](Oc2cc(N3CCC4(CC3)CN[C@H](C(=O)O)C4)nc(N)n2)C(F)(F)F)c(-n2ccc(C)n2)c1 [Example 12a, (S)-8-(2-amino-6-((R)-1-(4-ethyl-2-(3-methyl-H-pyrazol-1-yl)phenyl)-2,2,2-trifluoroethoxy)pyrimidin-4-yl)-2,8-diazaspiro[4.5]decane-3-carboxylic acid]"
9,50 to 300,"Cc1ccn(-c2cc(C(=O)OC(C)(C(F)(F)F)C(F)(F)F)ccc2[C@@H](Oc2cc(N3CCC4(CC3)CN[C@H](C(=O)O)C4)nc(N)n2)C(F)(F)F)n1 [Example 18a, (S)-8-(2-amino-6-((R)-2,2,2-trifluoro-1-(4-(((1,1,1,3,3,3-hexafluoro-2-methylpropan-2-yl)oxy)carbonyl)-2-(3-methyl-1H-pyrazol-1-yl)phenyl)ethoxy)pyrimidin-4-yl)-2,8-diazaspiro[4.5]decane-3-carboxylic acid]"
